The results in this text go back to PubChem BioAssay (NCI).

Holding throughout (test): growth of human tumour cells (NCI), 48 h
Assay [1] concerns CCRF-CEM leukemia.
The test system of assay [2] is SF-539 CNS.
The test system of assay [3] is OVCAR-8 ovarian.
The subject of assay [4] is LOX IMVI melanoma.
Assay [5] has as its system UACC-62 melanoma.
Assay [6] has as its system SK-MEL-2 melanoma.
Assay [7] relates to EKVX NSCLC.
The test system of assay [8] is RPMI-8226 leukemia.
Assay [9] deals with NCI-H522 lung.
Assay [10] has as its system SK-MEL-28 melanoma.

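Following 48 hours of exposure in 96-well plates, responses at five concentrations were used to interpolate endpoints linearly. GI50 is the concentration that inhibits growth by half. The concentration for full growth arrest is given as TGI.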

On to `O=C(/N=N/C(=O)OCc1ccccc1)OCc1ccccc1`, for which the TGI in assay [1], in assay [2], in assay [3], in assay [4], in assay [5] and in [6] was over 100 µM throughout. The TGI in assay [7] and in [8] was over 100 µM throughout.
Turning to `CS(=O)(=O)c1ccc([C@H]2O[C@@H](CO)C[C@]2(O)c2ccc(S(C)(=O)=O)cc2)cc1`, the GI50 in [1], in assay [2], in assay [9], in assay [3], in [4] and in [10] was over 100 µM in each case. For the same molecule, the GI50 in assay [5], in assay [7] and in assay [8] was over 100 µM in each case. The TGI in [1], in [2], in assay [9], in [3], in assay [4] and in assay [10] was over 100 µM each time. Moreover, the TGI in [5], in assay [7] and in assay [8] was over 100 µM in each case.
On to `CC(=O)CNC(=O)OC(C)(C)C`, for which the TGI in assay [1], in assay [2], in assay [9], in assay [3], in assay [10] and in [5] was over 100 µM each time. Moreover, the TGI in assay [6] and in [7] was over 100 µM each time.
For `CC(C)(CC(=O)Nc1ccccc1)C(=O)O`, the TGI in assay [1], in assay [2], in [3], in [4], in assay [10] and in [5] was over 100 µM in each case. Moreover, the TGI in [6], in assay [7] and in [8] was over 100 µM throughout.
Take `CC1(C)OC2[C@@H](CNC(=O)NC(=O)NC(=O)CI)O[C@@H](n3cnc4c(NC(=O)Nc5ccccc5)ncnc43)[C@H]2O1` (stereo partly specified): the GI50 in [2] is 4.75 µM; in [9], 0.742 µM; in assay [3], 9.45 µM; in assay [4] it was 0.907 µM; in [10], 8.53 µM; in assay [5], 8.44 µM. Further, the GI50 in assay [6] is 10.5 µM; in assay [7], 28.4 µM; in assay [8] it was 7.82 µM. In addition, the TGI stood at 10.9 µM in assay [2]; 1.5 µM in assay [9]; 22.7 µM in assay [3]; 1.74 µM in assay [4]; 16 µM in [10]; 17.1 µM in assay [5]. The TGI in [6] is 21.5 µM; in [7], over 50 µM; in [8], 23.3 µM.
As for `CCC[CH2][Sn]([CH2]CCC)([O]C(=O)c1cccnc1SC)[O]C(=O)c1cccnc1SC`, the GI50 in assay [2] is 1.2 µM; in assay [9] it was 0.0216 µM; in [3], 1.3 µM; in assay [4], 0.302 µM; in [10], 0.722 µM; in assay [5], 0.791 µM. The results for the GI50 in [6] and in assay [7] were 0.311 µM and 1.04 µM, respectively. Also, the TGI came to 2.49 µM in assay [2]; 0.133 µM in [9]; 2.78 µM in assay [3]; 1.37 µM in [4]; 2.02 µM in [10]; 2.04 µM in assay [5]. The TGI in assay [6] came out at 1.39 µM; in assay [7], 2.22 µM.
As to `COc1ccc(/C=C/CN(C)CCc2ccccc2)cc1OC`, the TGI in [3], in assay [10], in assay [5], in assay [6], in assay [7] and in [8] was over 100 µM in each case.
For the molecule `CC1=CC(=Nc2ccc(N(CCCl)CCCl)cc2)C=C(C)C1=O`, the GI50 was 0.187 µM in assay [1]; 0.448 µM in [2]; 2.48 µM in assay [10]; 1.12 µM in assay [5]; 1.48 µM in assay [6]; 3.31 µM in assay [7]. In addition, in [8], the GI50 is 1.14 µM. Moreover, the TGI is 5.21 µM in [1]; 8.71 µM in assay [2]; 10.1 µM in [10]; 6.47 µM in [5]; 4.77 µM in assay [6]; 35 µM in assay [7]. Moreover, in assay [8], the TGI worked out at 9.29 µM.
Turning to `O=C1C2c3[nH]c4ccccc4c3C3CCCCCCC3C2C(=O)N1c1ccccc1` (stereo unspecified), the TGI in [1] is 25.6 µM; in assay [2], 30.5 µM; in [3] it was 14.7 µM; in assay [4], 17.2 µM; in [10], 43.7 µM; in [5], over 100 µM. The TGI in assay [7] was over 100 µM; in assay [8], 68.3 µM.
Consider `O=C1CCC(=O)N2CCCCN12`, for which the TGI in [1], in assay [2], in assay [9], in [3], in assay [4] and in assay [10] was over 100 µM in each case. Further, the TGI in assay [5], in assay [6] and in [7] was over 100 µM each time.
In the case of `Nc1nc(Cl)c2ncn(Cc3ccc(C45CC6CC(CC(C6)C4)C5)c(O)c3)c2n1`, the GI50 in [1] was 0.809 µM; in assay [2] it was 11.8 µM; in assay [9], 6.01 µM; in assay [3], 2.93 µM; in assay [4] it was 2.38 µM; in assay [10], 10.6 µM. Besides, the GI50 in assay [5] is 4.07 µM; in [6], 16 µM; in [7] it was 2.99 µM. Besides, the TGI in [1] amounted to 10.6 µM; in assay [2], 26.7 µM; in assay [9], 23.8 µM; in assay [3], 14.1 µM; in [4], 13 µM; in assay [10], 25.9 µM. Moreover, the TGI in [5] was determined as 18.5 µM; in assay [6], 48.3 µM; in [7], 21.8 µM.
Turning to `CC1=NN(C(=O)Nc2ccccc2)C(=O)C2CCC(=O)N12` (stereo unspecified), the TGI in [1], in [2], in [3], in [4], in [10] and in assay [5] was over 100 µM throughout. In addition, the TGI in assay [6], in [7] and in assay [8] was over 100 µM each time.
